# According to patent US20100311133A1, “ELECTRODE, ENZYME SENSOR USING THE ELECTRODE, FUEL BATTERY, ELECTRONIC DEVICE, AND METHOD FOR DECOMPOSING POLYOL” (SONY CORPORATION, priority 2007, published 2010):
# Tests used:
# Alcohol dehydrogenase = target: T1, Alcohol dehydrogenase (Saccharomyces cerevisiae, UniProt P00330); assay: Amount of NADH generated from polyol substrates by alcohol dehydrogenase (Example 3); assay type: biochemical, yeast; conditions: substrate 100 mmol/L; NAD+ 1.3 mg/mL; enzyme 2.5 μ/mL; 25° C.; relative to alcohol dehydrogenase with ethylene glycol = 100
# T1 construct: purchased Wako Pure Chemical Industries, Ltd
# T1 sequence (P00330 1-348): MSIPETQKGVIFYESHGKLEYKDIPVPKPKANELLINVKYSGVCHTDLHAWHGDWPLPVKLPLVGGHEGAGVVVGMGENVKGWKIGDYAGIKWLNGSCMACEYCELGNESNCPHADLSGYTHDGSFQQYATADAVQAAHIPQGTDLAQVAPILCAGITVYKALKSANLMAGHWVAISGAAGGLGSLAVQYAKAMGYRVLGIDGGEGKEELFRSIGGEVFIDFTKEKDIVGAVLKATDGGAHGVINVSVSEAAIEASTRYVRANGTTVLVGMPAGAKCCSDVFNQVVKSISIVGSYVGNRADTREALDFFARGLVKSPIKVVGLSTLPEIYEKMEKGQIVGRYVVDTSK
# Text: (§1) To be more specific, an alcohol dehydrogenase and an aldehyde reductase were allow to act with each substrate and the amount of NADH generated was comparatively investigated.
# (§2) Individual relative values are indicated as relative values by assuming the amount of NADH generated from action of the alcohol dehydrogenase with ethylene glycol to be 100.
# Aldehyde reductase = assay: Amount of NADH generated from polyol substrates by aldehyde reductase (Example 3); assay type: biochemical, Candida; conditions: substrate 100 mmol/L; NAD+ 1.3 mg/mL; enzyme 2.5 μ/mL; 25° C.; relative to alcohol dehydrogenase with ethylene glycol = 100
# Text: as §1, §2
smiles,measurement,setting,value
"OC[C@@H](O)[C@@H](O)CO [Erythritol, erythritol]","Amount of reduced coenzyme generated (relative value %), Alcohol dehydrogenase",Alcohol dehydrogenase,6.0%
same,"Amount of reduced coenzyme generated (relative value %), Aldehyde reductase",Aldehyde reductase,50%
"OCCO [Ethylene glycol, ethylene glycol]","Amount of reduced coenzyme generated (relative value %), Alcohol dehydrogenase",Alcohol dehydrogenase,100%
same,"Amount of reduced coenzyme generated (relative value %), Aldehyde reductase",Aldehyde reductase,4.0%
"OCC(O)CO [Glycerol, glycerol]","Amount of reduced coenzyme generated (relative value %), Alcohol dehydrogenase",Alcohol dehydrogenase,0.6%
same,"Amount of reduced coenzyme generated (relative value %), Aldehyde reductase",Aldehyde reductase,7.0%
"OC[C@@H](O)[C@@H](O)[C@H](O)[C@@H](O)CO [Sorbitol, sorbitol]","Amount of reduced coenzyme generated (relative value %), Alcohol dehydrogenase",Alcohol dehydrogenase,0.7%
same,"Amount of reduced coenzyme generated (relative value %), Aldehyde reductase",Aldehyde reductase,100%
"OC[C@@H](O)[C@H](O)[C@@H](O)CO [Xylitol, xylitol]","Amount of reduced coenzyme generated (relative value %), Alcohol dehydrogenase",Alcohol dehydrogenase,0.4%
same,"Amount of reduced coenzyme generated (relative value %), Aldehyde reductase",Aldehyde reductase,34%
